# Test results: patent US20260265262A1, “CDK2 INHIBITORS AND METHODS OF USING THE SAME” (Cedilla Therapeutics, Inc., priority 2022, published 2026)
# Where two headings read alike, the source gives them in different places.
# Experiments:
# CDK2/Cyclin E1 = CDK2/Cyclin E1 (Homo sapiens, UniProt P24941); assay: ADP-Glo Luminescent Kinase Assay (CDK2/E1-37C); assay type: biochemical; conditions: 0.18 nM CDK2/Cyclin E1, 100 μM ATP, 1.5 μM Histone H1, 37° C., 60 min pre-incubation; read-out: ADPGLO (CDK2/E1-37C): IC50
# Procedure, shortened: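 Human CDK2/Cyclin E1 preincubated with inhibitor 60 min at 37 °C, then reacted 90 min at 37 °C with final 0.18 nM enzyme, 100 μM ATP, 1.5 μM Histone H1 in HEPES pH 7.5 buffer. ADP formed read by ADP-Glo luminescence; IC50 from four-parameter fit.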
# Kuramochi cells = assay: IncuCyte cell proliferation assay; assay type: cell-based
# Procedure, shortened: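 Kuramochi cells expressing mApple-H2B were treated with a 10-point, ½-log dilution series (top 20 μM). Fluorescent nuclei were counted by IncuCyte imaging at 0 and 72 h. The fold change in cell count was normalized to DMSO wells and fitted to dose-response curves to give […].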
# [1] = Kuramochi cells labeled with mApple-H2B, cell count 0 to 72 hours, 20 μM top concentration, read-out: IncuCyte Kuramochi RB-WT: IC50
Structure (SMILES),IC50 (CDK2/Cyclin E1) [µM],IC50 (Kuramochi cells; [1]) [µM],IC50 (Kuramochi cells; read-out: IncuCyte Kuramochi RB-WT: IC50 (μM)) [µM]
"C[C@@H](OCC12CCC(CC1)OC2)[C@H](NC(=O)[C@@H]1CN(C(=O)c2cnn(Cc3ccccc3C(=O)O)c2)CC12CN(C(=O)C1(C(F)(F)F)CC1)C2)C(=O)N1CCC2(CCNCC2)CC1 [Example I-60, 2-((4-((S)-8-(((2S,3R)-3-((2-oxabicyclo[2.2.2]octan-4-yl)methoxy)-1-oxo-1-(3,9-diazaspiro[5.5]undecan-3-yl)butan-2-yl)carbamoyl)-2-(1-(trifluoromethyl)cyclopropane-1-carbonyl)-2,6-diazaspiro[3.4]octane-6-carbonyl)-1H-pyrazol-1-yl)methyl)benzoic acid]",< 0.5,0.5 to 5,
"N#Cc1ccc(Cn2cc(C(=O)N3CC(C(=O)N[C@@H](COCC45CCC(CC4)OC5)c4ccc(C(=O)O)cc4)C4(C3)CN(C(=O)C3(C(F)(F)F)CC3)C4)cn2)cc1 (stereo partly drawn) [Example I-23, 4-((1R)-2-((2-oxabicyclo[2.2.2]octan-4-yl)methoxy)-1-(6-(1-(4-cyanobenzyl)-1H-pyrazole-4-carbonyl)-2-(1-(trifluoromethyl)cyclopropane-1-carbonyl)-2,6-diazaspiro[3.4]octane-8-carboxamido)ethyl)benzoic acid]",> 10,> 20,
"C[C@@H](OCC1CCOCC1)[C@H](NC(=O)[C@@H]1CN(C(=O)c2cnn(Cc3ccc(C(F)(F)F)cc3)c2)CC12CN(C(=O)C1(C(F)(F)F)CC1)C2)C(=O)N1CCC(c2nccs2)CC1 [Example I-79, (S)—N-((2S,3R)-1-oxo-3-((tetrahydro-2H-pyran-4-yl)methoxy)-1-(4-(thiazol-2-yl)piperidin-1-yl)butan-2-yl)-6-(1-(4-(trifluoromethyl)benzyl)-1H-pyrazole-4-carbonyl)-2-(1-(trifluoromethyl)cyclopropane-1-carbonyl)-2,6-diazaspiro[3.4]octane-8-carboxamide]",< 0.5,0.5 to 5,
"C[C@@H](OCC12CCC(CC1)OC2)[C@H](NC(=O)[C@@H]1CN(C(=O)c2cnc(O)cn2)CC12CN(C(=O)C1(C(F)(F)F)CC1)C2)C(=O)N1CCC(c2ccc(C(=O)O)c(C(F)(F)F)c2)CC1 [I-89 1st, 4-(1-(O-((2-oxabicyclo[2.2.2]octan-4-yl)methyl)-N—((S)-6-(5-hydroxypyrazine-2-carbonyl)-2-(1-(trifluoromethyl)cyclopropane-1-carbonyl)-2,6-diazaspiro[3.4]octane-8-carbonyl)-L-threonyl)piperidin-4-yl)-2-(trifluoromethyl)benzoic acid]",> 10,> 20,
"C[C@@H](OCC12CCC(CC1)OC2)[C@H](NC(=O)[C@@H]1CN(C(=O)c2cnn(Cc3ccccc3)c2)CC12CN(C(=O)C1(C(F)(F)F)CC1)C2)C(=O)N1CCN(c2ccc(C(=O)O)cc2)CC1 [Example I-87, 4-(4-(O-((2-oxabicyclo[2.2.2]octan-4-yl)methyl)-N—((S)-6-(1-benzyl-1H-pyrazole-4-carbonyl)-2-(1-(trifluoromethyl)cyclopropane-1-carbonyl)-2,6-diazaspiro[3.4]octane-8-carbonyl)-L-threonyl)piperazin-1-yl)benzoic acid]",< 0.5,5 to 20,
"C=CCOC(=O)N1CCC2(CC1)CCN(C(=O)[C@@H](NC(=O)[C@@H]1CN(C(=O)c3cnn(Cc4ccccc4C(=O)O)c3)CC13CN(C(=O)C1(C(F)(F)F)CC1)C3)[C@@H](C)OCC13CCC(CC1)OC3)CC2 [Example I-7, 2-((4-((S)-8-(((2S,3R)-3-((2-oxabicyclo[2.2.2]octan-4-yl)methoxy)-1-(9-((allyloxy)carbonyl)-3,9-diazaspiro[5.5]undecan-3-yl)-1-oxobutan-2-yl)carbamoyl)-2-(1-(trifluoromethyl)cyclopropane-1-carbonyl)-2,6-diazaspiro[3.4]octane-6-carbonyl)-1H-pyrazol-1-yl)methyl)benzoic acid]",< 0.5,> 20,
"CC1(C)C[C@@H]1C(=O)N1CC2(CN(C(=O)c3cncs3)C[C@H]2C(=O)N2CCC[C@@H](N(CC(=O)NS(C)(=O)=O)CC3CCCCC3)C2)C1 [Example I-70, 2-((cyclohexylmethyl)((R)-1-((S)-2-((S)-2,2-dimethylcyclopropane-1-carbonyl)-6-(thiazole-5-carbonyl)-2,6-diazaspiro[3.4]octane-8-carbonyl)piperidin-3-yl)amino)-N-(methylsulfonyl)acetamide]",> 10,> 20,
CC1(C)C[C@@H]1C(=O)N1CC2(CN(C(=O)c3cncs3)C[C@H]2C(=O)N2CCC[C@@H](N(CC(=O)O)CC3CCCCC3)C2)C1 [Example I-71],> 10,> 20,
C[C@@H](OCC1CCCCC1)[C@H](NC(=O)[C@@H]1CN(C(=O)c2cnn(Cc3ccc(C(F)(F)F)cc3)c2)CC12CN(C(=O)[C@H]1CC1(C)C)C2)C(=O)N1CCC(c2ccc(C(=O)O)cc2)CC1 [Example I-29],< 0.5,,0.5 to 5
"CC1(C)C[C@@H]1C(=O)N1CC2(CN(C(=O)c3cncs3)C[C@H]2C(=O)N2CCN(CC3CCCCC3)C(CC(=O)O)C2)C1 (stereo partly drawn) [Example I-6, 2-(1-(cyclohexylmethyl)-4-((S)-2-((S)-2,2-dimethylcyclopropane-1-carbonyl)-6-(thiazole-5-carbonyl)-2,6-diazaspiro[3.4]octane-8-carbonyl)piperazin-2-yl)acetic acid]",> 10,> 20,
C[C@@H](OCC12CCC(CC1)OC2)[C@H](NC(=O)[C@@H]1CN(C(=O)c2cnn(Cc3ccc(C(F)(F)F)cc3)c2)CC12CN(C(=O)C1(C(F)(F)F)CC1)C2)C(=O)N1CCC(c2nnn[nH]2)CC1 [Example I-100],< 0.5,> 20,
"C[C@@H](OCC12CCC(CC1)OC2)[C@H](NC(=O)[C@@H]1CN(C(=O)c2cnn(Cc3ccc(C(F)(F)F)cc3)c2)CC12CN(C(=O)C1(C(F)(F)F)CC1)C2)C(=O)NCCC(=O)NS(C)(=O)=O [Example I-73, (S)—N-((2S,3R)-3-((2-oxabicyclo[2.2.2]octan-4-yl)methoxy)-1-((3-(methylsulfonamido)-3-oxopropyl)amino)-1-oxobutan-2-yl)-6-(1-(4-(trifluoromethyl)benzyl)-1H-pyrazole-4-carbonyl)-2-(1-(trifluoromethyl)cyclopropane-1-carbonyl)-2,6-diazaspiro[3.4]octane-8-carboxamide]",5 to 10,> 20,
"C[C@@H](OCC12CCC(CC1)OC2)[C@H](NC(=O)[C@@H]1CN(C(=O)c2cnc(O)cn2)CC12CN(C(=O)C1(C(F)(F)F)CC1)C2)C(=O)N1CCC(c2ccc(C(=O)O)c(C(F)(F)F)c2)CC1 [I-89 3rd, 4-(1-(O-((2-oxabicyclo[2.2.2]octan-4-yl)methyl)-N-(6-(5-hydroxypyrazine-2-carbonyl)-2-(1-(trifluoromethyl)cyclopropane-1-carbonyl)-2,6-diazaspiro[3.4]octane-8-carbonyl)-L-threonyl)piperidin-4-yl)-2-(trifluoromethyl)benzoic acid]",< 0.5,> 20,
C[C@@H](OCC12CCC(CC1)OC2)[C@H](NC(=O)[C@@H]1CN(C(=O)c2cnn(Cc3ccc(C(F)(F)F)cc3)c2)CC12CN(C(=O)C1(C(F)(F)F)CC1)C2)C(=O)N1CCC(c2ccc(C(=O)O)cc2)CC1 [Example I-99],< 0.5,> 20,
COC(=O)C(C)(C)Oc1ccc(C2CCN(C(=O)[C@@H](NC(=O)[C@@H]3CN(C(=O)c4cnn(Cc5ccc(C(F)(F)F)cc5)c4)CC34CN(C(=O)C3(C(F)(F)F)CC3)C4)[C@@H](C)OCC34CCC(CC3)OC4)CC2)cc1C(F)(F)F [Example I-98],> 10,> 20,
"COC(=O)c1ccccc1C1CCN(C(=O)[C@@H](NC(=O)[C@@H]2CN(C(=O)c3cnn(Cc4ccc(C(F)(F)F)cc4)c3)CC23CN(C(=O)C2(C(F)(F)F)CC2)C3)[C@@H](C)OCC23CCC(CC2)OC3)CC1 [Example I-11, methyl 2-(1-(O-((2-oxabicyclo[2.2.2]octan-4-yl)methyl)-N—((S)-6-(1-(4-(trifluoromethyl)benzyl)-1H-pyrazole-4-carbonyl)-2-(1-(trifluoromethyl)cyclopropane-1-carbonyl)-2,6-diazaspiro[3.4]octane-8-carbonyl)-L-threonyl)piperidin-4-yl)benzoate]",< 0.5,0.5 to 5,
C[C@@H](OCC12CCC(CC1)OC2)[C@H](NC(=O)[C@@H]1CN(C(=O)c2cnn(Cc3ccc(C(F)(F)F)cc3)c2)CC12CN(C(=O)C1(C(F)(F)F)CC1)C2)C(=O)NCCC(=O)O [Example I-75],5 to 10,> 20,
COC(=O)C1CCN(C(=O)[C@@H](NC(=O)[C@@H]2CN(C(=O)c3cnn(Cc4ccccc4)c3)CC23CN(C(=O)[C@H]2CC2(C)C)C3)[C@@H](C)OCC2CCCCC2)CC1 [Example I-17],< 0.5,< 0.5,
C[C@@H](OCC1CCCCC1)[C@H](NC(=O)[C@@H]1CN(C(=O)c2cnn(Cc3ccccc3)c2)CC12CN(C(=O)[C@H]1CC1(C)C)C2)C(=O)NS(C)(=O)=O [Example I-18],< 0.5,> 20,
"C[C@@H](OCC1CCCCC1)[C@H](NC(=O)[C@@H]1CN(C(=O)c2cnn(Cc3ccccc3)c2)CC12CN(C(=O)[C@H]1CC1(C)C)C2)C(=O)N1CCCC[C@H]1C(=O)O [Example I-36, (S)-1-(N—((S)-6-(1-benzyl-1H-pyrazole-4-carbonyl)-2-((S)-2,2-dimethylcyclopropane-1-carbonyl)-2,6-diazaspiro[3.4]octane-8-carbonyl)-O-(cyclohexylmethyl)-L-threonyl)piperidine-2-carboxylic acid]",< 0.5,> 20,
